From publication PMC7835950 (Frontiers in Chemistry, 2021) come the findings set out here.

As usually defined, the Ki is a dissociation constant, usually derived from enzyme kinetics or from competition with a known ligand.

Like-named read-outs stand apart in the source and are kept apart here.

The test has as its target T1, OGDH (Rattus norvegicus, UniProt Q5XI78).
T1 sequence (Q5XI78 41-1023): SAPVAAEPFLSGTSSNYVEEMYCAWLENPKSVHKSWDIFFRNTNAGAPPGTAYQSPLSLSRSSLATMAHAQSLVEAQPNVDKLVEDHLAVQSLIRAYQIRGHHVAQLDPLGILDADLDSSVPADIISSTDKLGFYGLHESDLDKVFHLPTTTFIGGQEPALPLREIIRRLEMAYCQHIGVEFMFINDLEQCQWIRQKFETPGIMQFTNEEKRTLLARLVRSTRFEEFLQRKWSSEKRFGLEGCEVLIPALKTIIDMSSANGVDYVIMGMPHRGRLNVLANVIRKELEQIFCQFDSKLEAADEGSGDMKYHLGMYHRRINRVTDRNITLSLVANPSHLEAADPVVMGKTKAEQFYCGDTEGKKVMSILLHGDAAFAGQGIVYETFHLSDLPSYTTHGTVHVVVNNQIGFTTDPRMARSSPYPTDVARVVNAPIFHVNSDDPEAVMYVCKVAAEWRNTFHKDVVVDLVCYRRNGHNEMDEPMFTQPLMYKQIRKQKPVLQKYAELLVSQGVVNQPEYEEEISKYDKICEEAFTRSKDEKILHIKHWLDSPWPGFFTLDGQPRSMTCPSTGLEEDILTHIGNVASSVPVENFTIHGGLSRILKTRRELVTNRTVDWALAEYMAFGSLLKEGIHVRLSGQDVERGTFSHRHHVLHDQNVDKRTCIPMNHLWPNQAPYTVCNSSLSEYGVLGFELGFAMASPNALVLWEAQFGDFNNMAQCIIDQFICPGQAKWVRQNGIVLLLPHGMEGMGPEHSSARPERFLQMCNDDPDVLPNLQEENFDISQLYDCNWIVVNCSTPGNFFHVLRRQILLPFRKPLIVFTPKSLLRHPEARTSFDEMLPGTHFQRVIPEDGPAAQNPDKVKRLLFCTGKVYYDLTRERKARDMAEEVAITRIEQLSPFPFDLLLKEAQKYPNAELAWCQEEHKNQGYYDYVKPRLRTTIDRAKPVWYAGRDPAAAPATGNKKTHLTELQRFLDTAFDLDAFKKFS
T1 sequence (Q01205 69-454 partner): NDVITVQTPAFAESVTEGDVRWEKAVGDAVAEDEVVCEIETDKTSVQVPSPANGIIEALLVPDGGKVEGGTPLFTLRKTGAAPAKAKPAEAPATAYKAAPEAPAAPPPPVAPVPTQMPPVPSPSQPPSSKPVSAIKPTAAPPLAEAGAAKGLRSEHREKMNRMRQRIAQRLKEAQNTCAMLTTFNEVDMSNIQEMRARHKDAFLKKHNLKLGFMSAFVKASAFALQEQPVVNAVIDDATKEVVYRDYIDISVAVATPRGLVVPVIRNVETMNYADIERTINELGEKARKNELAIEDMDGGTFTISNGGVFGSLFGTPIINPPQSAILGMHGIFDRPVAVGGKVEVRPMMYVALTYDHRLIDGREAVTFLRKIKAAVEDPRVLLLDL
T1 sequence (Q6P6R2 36-509 partner): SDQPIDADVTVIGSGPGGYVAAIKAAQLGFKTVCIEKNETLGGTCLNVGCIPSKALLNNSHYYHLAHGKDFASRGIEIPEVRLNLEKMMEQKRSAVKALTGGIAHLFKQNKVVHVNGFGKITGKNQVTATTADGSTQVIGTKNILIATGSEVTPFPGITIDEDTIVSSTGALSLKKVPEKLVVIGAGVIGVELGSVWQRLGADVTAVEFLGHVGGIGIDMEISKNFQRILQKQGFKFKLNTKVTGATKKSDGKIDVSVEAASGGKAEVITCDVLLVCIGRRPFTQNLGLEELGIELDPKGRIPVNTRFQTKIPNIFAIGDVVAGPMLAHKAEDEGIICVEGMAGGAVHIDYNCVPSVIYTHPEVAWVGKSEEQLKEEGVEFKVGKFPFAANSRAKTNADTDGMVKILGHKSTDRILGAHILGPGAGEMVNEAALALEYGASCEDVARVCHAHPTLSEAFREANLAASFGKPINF
The experiment in a line: OADH reaction (OA saturation) catalyzed by the enzyme preparation from rat heart. It is filed as biochemical. Details: the tissue fractions with the complexes enriched to a degree allowing for a robust detection of the enzymatic activities, have been used; from tissue; host or cells: rat heart. Particulars: for Ki / Amax: OADH reaction, heart. The protocol:
Enzymes catalyzing OGDH and OADH reactions were enriched from rat hearts and livers using polyethylene glycol precipitation, as previously described (Artiukhov et al., [2020]).
The enzyme activities were assayed in the medium (pH 7.0) containing 50 mM MOPS, 1 mM ThDP, 1 mM MgCl2, 1 mM CaCl2, 1 mM dithiothreitol 0.15 mM Coenzyme A, 0.25 mM NAD^+ and various concentrations of 2-oxo substrates (0–10 mM OG or OA) and their phosphonate analogs (0–5,000 μM SP, GP, or AP). Reactions were started by addition of the enzyme preparations to the assay media. The amount of enzyme preparations (0.074 mg protein for the preparation from liver and 0.023 mg protein for the preparation from heart) were chosen to induce the lowest reliably measured reaction rate (ΔA340 = 0.001/min) at 0.01 mM OA without the phosphonates.
Reaction rates were calculated from linear parts of the product accumulation curves (up to 10 min, dependent on the reaction rate), excluding the initial region, where mixing the reagents and solubilization of the preparation affected the optical density.
Non-linear regression was used to approximate the experimental dependences of the reaction rates on the OG or OA concentration according to the Michaelis-Menten equation ( a=Amax*[S]/Km+[S] ) or its sum ( a=Amax*[S]/Km+[S]+Amax,2*[S]/Km,2+[S] ). The former equation describes one type of the active sites. […] The assumption was based on the presence of the two enzymes, OGDH and OADH, in the employed preparations.
The kinetic data were also analyzed by linear regression, using the known methods of the linearization of the Michaelis-Menten equation in the Lineweaver-Burk ( 1/a=1/Amax(1+Km/[S]) ) and Eadie-Hofstee ( a=Amax−Kmv/[S] ) coordinates. Due to the several orders of magnitude difference in the values of Km,1 and Km,2, the linear regression required separate analysis of the dependencies in the intervals of the low and high concentrations of 2-oxoadipate. The Km and Amax values obtained in independent experiments using the non-linear and linear regression analyses of the experimental data, were averaged and presented as Mean ± Standard Error of Mean.
To determine the inhibition constants (Ki), the effective values of Kmeff and Amaxeff , calculated from the hyperbolic or linear approximations as described above, were plotted against the concentration of the inhibitors ([I]). The linear regression of the equation Kmeff/Amaxeff=Km/Amax(1+[I]/Ki) , (Cornish-Bowden, [1979]) was applied to find the Intercept (Km/Amax) and Slope (Km/(Amax*Ki)) of a dependence. The values of Ki were determined as the ratio of the corresponding Intercepts to the Slopes. In the two-site model, the Ki(1) and Ki(2) were calculated separately from the linear approximations of Km,1eff/Amax,1eff vs. [I] and Km,2eff/Amax,2eff vs. [I] dependences, respectively. The standard errors of Ki were determined from means and standard errors of the Intercepts and the Slopes, using the previously described formula for standard deviation of a fraction (Bunik et al., [1999]). The Ki values obtained from the non-linear and linear regression analyses of the experimental data were averaged and presented as Mean ± Standard Error of Mean.

The mark [1] stands for this setting: 0–10 mM OA, Michaelis-Menten, read-out: Ki, MM.
Setting [2] is: Eadie-Hofstee, read-out: Ki, EH.
Where [3] appears, read: Lineweaver-Burk, read-out: Ki, LB.
[4] abbreviates: average of MM, LB, EH, read-out: Ki, Average.

Consider `O=C(O)CCCC(=O)P(=O)(O)O` [GP, glutaryl phosphonate], for which the Ki under setting [1] was 3.8 ± 0.1 µM, the Ki under setting [2] is 3.4 ± 0.5 µM, the Ki under setting [3] worked out at 1.1 ± 0.2 µM and the Ki under setting [4] amounted to 2.8 ± 0.8 µM. For the same compound, the Amax is, setting by setting: ([I] 2 µM) 0.105 ± 0.003 µmol/min per mg of protein; ([I] 10 µM) 0.131 ± 0.002 µmol/min per mg of protein; ([I] 50 µM) 0.139 ± 0.010 µmol/min per mg of protein; ([I] 200 µM) 0.103 ± 0.018 µmol/min per mg of protein.
As for `O=C(O)CCCC(=O)C(=O)O` [OA, 2-oxoadipate], the “Amax, OA saturation” value (heart preparation) is 0.102 ± 0.008 μmol/min per mg of protein.
Turning to `O=C(O)CCC(=O)P(=O)(O)O` [SP, succinyl phosphonate], the Ki runs as follows: under setting [1], 10.2 ± 0.2 µM; under setting [2], 6.3 ± 0.1 µM; under setting [3], 4.7 ± 0.3 µM; under setting [4], 7.1 ± 1.6 µM. The Amax is 0.109 ± 0.001 µmol/min per mg of protein ([I] 10 µM), 0.109 ± 0.006 µmol/min per mg of protein ([I] 50 µM), 0.106 ± 0.004 µmol/min per mg of protein ([I] 200 µM) and 0.075 ± 0.123 µmol/min per mg of protein ([I] 1000 µM).
Consider `O=C(O)CCCCC(=O)P(=O)(O)O` [AP, adipoyl phosphonate], for which the Ki reads like this: under setting [1], 49 ± 8 µM; under setting [2], 40 ± 7 µM; under setting [3], 58 ± 8 µM; under setting [4], 49 ± 5 µM. For the same compound, the Amax was 0.101 ± 0.002 µmol/min per mg of protein ([I] 0.5 µM); 0.096 ± 0.002 µmol/min per mg of protein ([I] 2 µM); 0.098 ± 0.002 µmol/min per mg of protein ([I] 10 µM); 0.109 ± 0.002 µmol/min per mg of protein ([I] 50 µM); 0.116 ± 0.002 µmol/min per mg of protein ([I] 200 µM).
